Results on four compounds are retold here after patent US11000502B2, “Antimicrobial compositions comprising copper-hydroxypyrone complexes” (United Kingdom Research and Innovation, priority 2017, dated 2021).

The subject of series [1] is E. coli NCTC1110. Put plainly: In vitro antibacterial assay for liquid copper solutions (turbidimetric E. coli growth inhibition). The series is classed as cell-based. The method, then:
Preparation of Copper Complexes with EDTA, Maltol and Ethyl Maltol for Antimicrobial Testing
Cu-EDTA complexes were freshly prepared by dissolving CuCl2.2H2O and disodium ethylenediaminetetraacetate (EDTA) di-hydrate in UHP water. The pH was adjusted to 7.5±0.2 with 1M NaOH. Various Cu:EDTA ratios were achieved by maintaining concentration copper at 20 mM (ca. 1270 ppm), whilst changing that of EDTA—20 and 200 mM—thus achieving Cu-EDTA ratios of 1:1 and 1:10, respectively.
CuMaltol (ratio 1:1) was prepared by mixing equivalent volumes of 100 mM CuCl2.2H2O solution with an alkaline (pH>11) 100 mM maltol solution and quickly diluting the mixture to 10 mM Cu (final pH of 5.7).
Cu Ethylmaltol (ratio 1:1) was prepared by mixing appropriate volumes of 80 mM CuCl2.2H2 O solution with an alkaline (pH>10.5) 20 mM ethylmaltol solution and quickly diluting the mixture to 10 mM Cu and 10 mM ethylmaltol (final pH of 7.2).
CuMaltol (ratio 1:4) was prepared by mixing appropriate volumes of 80 mM CuCl2.2H2O solution with an alkaline (pH>10.5) 60 mM maltol solution and quickly diluting the mixture to 10 mM Cu and 40 mM maltol (final pH of 8.5).
Cu Ethylmaltol (ratio 1:4) was prepared by mixing appropriate volumes of 80 mM CuCl2.2H2O solution with an alkaline (pH>10.5) 60 mM ethylmaltol solution and quickly diluting the mixture to 10 mM Cu and 40 mM ethylmaltol (final pH of 8.5).
Heavy Metal MOPS (HMM) Medium, pH 7.2±0.2.
HMM is a defined medium developed for testing heavy metals and here was supplemented with glucose and cas-amino acids (acid hydrolysate of casein) and optionally with 4% BSA. HMM was prepared from concentrated stock solutions of each reagent, and pH adjusted to 7.2±0.2 (Table 1). Freshly prepared medium was immediately filtered through a 0.22 micron membrane and stored at 4±2° C.
In Vitro Antibacterial Assay for Liquid Copper Solutions
Antimicrobial activity was assessed through determination of E. coli NCTC1110 growth inhibition in the presence of copper compounds. A turbidimetric assay was used to follow bacterial concentration over time as this is proportional to optical density (OD at 595 nm) in liquid medium. Bacterial cultures were grown overnight in HMM at 30° C. under constant shaking (80 rpm). On the day of the assay, the OD of the bacterial suspension was measured at 595 nm on a plate reader and diluted in HMM to achieve an OD of 0.05. […] Final copper concentrations in the assay ranged between 0.4 and 50 ppm, and OD was measured every hour for a typical period of 6 to 8 hours. OD background, i.e. OD absorbance not caused by bacteria, was determined to remove readout interference from copper and broth. Growth inhibition was calculated as follows: […]

Series [2] can be described thus: Exemplification of redox protection (copper maltol degradation to cuprous hydroxide). In kind it is physicochemical. Conditions: pH 11.8 with sodium hydroxide; overnight (A) / several days (B, 30% (w/w) PEG). The method, then:
Exemplification of Redox Protection
A 40 mM copper stock was prepared by dissolving 0.347 g copper chloride dihydrate in 50 mL water. The resulting solution was blue.
A 160 mM maltol stock was prepared by dissolving 1.01 g maltol in 50 mL water and pH adjusting with NaOH (pH>10.5. This produced a clear solution.
Experiment A: Copper Maltol Degradation
The copper and maltol stocks were mixed in water at 1:1 ratios (v:v) producing a green solution. pH was then adjusted to 11.8 with sodium hydroxide to accelerate redox conversion.
Experiment B: Copper Maltol-PEG Assemblies Prevent Redox Conversion
Same as experiment A but 30% (w/w) PEG was added.

Turning to Copper ethylmaltol, the “antimicrobial properties in protein-rich environments” value in series [1] (HMM with 4% BSA, 6 hours, ratios 1:1 and 1:4) was “retained”.

On to `O=C([O-])CN(CCN(CC(=O)[O-])CC(=O)O)CC(=O)O.[Cu+2]` [copper EDTA, reference compound], for which, in series [1] (HMM pH 7.2, 6 hours, Cu:EDTA 1:1 and 1:10), the “antibacterial action against E. coli (FIG. 1)” value is reported as “significantly suppressing its antibacterial action”.

As for copper maltol, in series [2], the “redox conversion of Cu2+ to cuprous hydroxide (red precipitate)” value is “a red precipitate (cuprous hydroxide) deposited”. The “suppression of E. coli growth” value in series [1] (bacterial media (HMM) comprising 4% BSA, 40 ppm copper, 6 hours) is recorded as “completely suppressed”.

For the compound `[Cl][Cu][Cl]` [copper chloride, reference compound], in series [1] (bacterial media (HMM) comprising 4% BSA, 50 ppm copper, 6 hours), the “E. coli growth inhibition” value is reported as 60%.
